In one test the test system is A2780 cells. The experiment in a line: Cell Viability Assay (ATPlite 1step), A2780. It is filed as cell-based. Conditions: Homo sapiens, 72 hours; for percent inhibition of cell viability at 4 µM: A2780, 4 uM compound, read-out: Cell Viability % inhibition A2780 (4 uM Cpd); for percent inhibition of cell viability at 20 µM: A2780, 20 uM compound, read-out: Cell Viability % inhibition A2780 (20 uM Cpd). How it is done: (§1) Cell Viability Assay Protocol
(§2) Cells were trypsinized, counted, and re-seeded into a 384-well tissue culture plate at 1000 cells per well in […] media. Cells were incubated at 37° C. in an atmosphere of 5% CO2 for 24 hours. Experimental compounds, initially dissolved in DMSO and diluted further in media were added to the wells and incubated for 72 hours. Cell viability was measured using the ATPlite 1step Luminescence Detection Assay system (Perkin Elmer) as described in the Assay kit instructions.
(§3) Cell Culture Lines and Media: (1) A2780 cells were cultured in RPMI media with 10% FBS and 1% antibiotics. Cells were typically split every 3-5 days at a 1:10 dilution; (2) PC3 cells were cultured in RPMI media with 10% FBS and 1% antibiotics. Cells were typically split every 3-5 days at a 1:4 dilution; (3) MCF-7 cells were grown in K-12F media with 10% FBS and 1% antibiotics. Cells were typically split every 3-5 days at a 1:10 dilution.

The test system of another test is PC3 cells. The experiment in a line: Cell Viability Assay (ATPlite 1step), PC3. To be noted: Homo sapiens, PC-3, 72 hours; for percent inhibition of cell viability at 4 µM: PC3, 4 uM compound, read-out: Cell Viability % inhibition PC3 (4 uM Cpd); for percent inhibition of cell viability at 20 µM: PC3, 20 uM compound, read-out: Cell Viability % inhibition PC3 (20 uM Cpd). The test is classed as cell-based. How it is done:
as §1, §2, §3
(In general: In ATP-based viability assays light output follows the ATP content of the culture.)

`O=C(Nc1ccc(-c2ccc(Cl)cc2)cn1)c1cncnc1` [Compound 2, N-[5-(4-chlorophenyl)pyridin-2-yl]pyrimidine-5-carboxamide]: in the test on A2780 cells, the percent inhibition of cell viability at 4 µM worked out at 19.5% and the percent inhibition of cell viability at 20 µM worked out at 65.2%. Moreover, in the test with PC3 cells, the percent inhibition of cell viability at 4 µM stood at 4.9% and the percent inhibition of cell viability at 20 µM came out at 17.4%.

Regarding `O=C(Nc1ccc(-c2ccccc2Cl)cn1)c1cncnc1` [Compound 4, N-[5-(2-chlorophenyl)pyridin-2-yl]pyrimidine-5-carboxamide], in the test on A2780 cells, the percent inhibition of cell viability at 4 µM was determined as 79.7% and the percent inhibition of cell viability at 20 µM came out at 87.5%. In the test with PC3 cells, the percent inhibition of cell viability at 4 µM is 36% and the percent inhibition of cell viability at 20 µM was 44.2%.

Regarding `O=C(Nc1ccc(C2CC2)cn1)c1cncnc1` [Compound 6, N-(5-cyclopropylpyridin-2-yl)pyrimidine-5-carboxamide], the percent inhibition of cell viability at 4 µM amounted to 75.5% in the test with A2780 cells and 27% in the test on PC3 cells. The percent inhibition of cell viability at 20 µM in the test on A2780 cells was 76.4%; in the test on PC3 cells, 29.9%.

`O=C(Nc1ccc(-c2ccsc2)cn1)c1cncnc1` [Compound 7, N-[5-(thiophen-3-yl)pyridin-2-yl]pyrimidine-5-carboxamide]: in the test with A2780 cells, the percent inhibition of cell viability at 4 µM is 81.3% and the percent inhibition of cell viability at 20 µM was 90.9%. For the same compound, in the test with PC3 cells, the percent inhibition of cell viability at 4 µM came to 44.1% and the percent inhibition of cell viability at 20 µM turned out to be 41.8%.

Take `COc1ccc(Cl)cc1-c1ccc(NC(=O)c2cncnc2)nc1` [Compound 21, N-[5-(5-chloro-2-methoxyphenyl)pyridin-2-yl]pyrimidine-5-carboxamide]: the percent inhibition of cell viability at 4 µM was determined as 70.4% with A2780 cells and 22.8% in the test with PC3 cells. Also, the percent inhibition of cell viability at 20 µM came out at 62.4% in the test with A2780 cells and 15.3% in the test on PC3 cells.

Take `COc1ccc(-c2ccc(NC(=O)c3cncnc3)nc2)cc1Cl` [Compound 22, N-[5-(3-chloro-4-methoxyphenyl)pyridin-2-yl]pyrimidine-5-carboxamide]: in the test on A2780 cells, the percent inhibition of cell viability at 4 µM worked out at 69% and the percent inhibition of cell viability at 20 µM is 67.9%. Besides, in the test on PC3 cells, the percent inhibition of cell viability at 4 µM was found to be 20.7% and the percent inhibition of cell viability at 20 µM turned out to be 11.5%.

Consider `O=C(Nc1ccc(-c2cccc(C3CC3)c2)cn1)c1cccnc1` [Compound 24, N-[5-(3-cyclopropylphenyl)pyridin-2-yl]pyridine-3-carboxamide], for which, in the test on A2780 cells, the percent inhibition of cell viability at 4 µM was determined as 73.4% and the percent inhibition of cell viability at 20 µM was 72.2%. Besides, in the test on PC3 cells, the percent inhibition of cell viability at 4 µM was 53.1% and the percent inhibition of cell viability at 20 µM was 67.5%.

`Cc1ccc(C(=O)Nc2ccc(-c3cccc(C4CC4)c3)cn2)cn1` [Compound 25, N-[5-(3-cyclopropylphenyl)pyridin-2-yl]-6-methylpyridine-3-carboxamide]: the percent inhibition of cell viability at 4 µM in the test with A2780 cells was 70.6%; in the test with PC3 cells, 50.3%. Also, the results for the percent inhibition of cell viability at 20 µM with A2780 cells and in the test with PC3 cells were 81.1% and 63.4%, respectively.

Take `O=C(Nc1ccc(-c2cccc(OC3CC3)c2)cn1)c1cncnc1` [Compound 26, N-{5-[3-(cyclopropyloxy)phenyl]pyridin-2-yl}pyrimidine-5-carboxamide]: the figures for the percent inhibition of cell viability at 4 µM with A2780 cells and in the test with PC3 cells were 76% and 59.3%, respectively. Besides, the percent inhibition of cell viability at 20 µM with A2780 cells was 79.9%; in the test with PC3 cells it was 67.5%.

As to `O=C(Nc1ccc(-c2cccc(OC3CC3)c2)cn1)c1cccnc1` [Compound 28, N-{5-[3-(cyclopropyloxy)phenyl]pyridin-2-yl}pyridine-3-carboxamide], in the test on A2780 cells, the percent inhibition of cell viability at 4 µM amounted to 77% and the percent inhibition of cell viability at 20 µM was 74.2%. In the test with PC3 cells, the percent inhibition of cell viability at 4 µM amounted to 58.9% and the percent inhibition of cell viability at 20 µM amounted to 65.6%.

Consider `Cc1ccc(C(=O)Nc2ccc(-c3cccc(OC4CC4)c3)cn2)cn1` [Compound 29, N-{5-[3-(cyclopropyloxy)phenyl]pyridin-2-yl}-6-methylpyridine-3-carboxamide], for which the values for the percent inhibition of cell viability at 4 µM in the test with A2780 cells and in the test on PC3 cells were 74.4% and 60.5%, respectively. Moreover, the percent inhibition of cell viability at 20 µM in the test on A2780 cells was found to be 83.1%; in the test with PC3 cells, 69.5%.

On to `O=C(Nc1ccc(-c2cccc(NC3CC3)c2)cn1)c1cncnc1` [Compound 30, N-{5-[3-(cyclopropylamino)phenyl]pyridin-2-yl}pyrimidine-5-carboxamide], for which, in the test on A2780 cells, the percent inhibition of cell viability at 4 µM is 77.4% and the percent inhibition of cell viability at 20 µM worked out at 78.7%. Besides, in the test on PC3 cells, the percent inhibition of cell viability at 4 µM amounted to 63.4% and the percent inhibition of cell viability at 20 µM amounted to 71.9%.

`O=C(Nc1ccc(-c2cccc(NC3CC3)c2)cn1)c1cccnc1` [Compound 32, N-{5-[3-(cyclopropylamino)phenyl]pyridin-2-yl}pyridine-3-carboxamide]: the percent inhibition of cell viability at 4 µM in the test with A2780 cells was 71.9%; with PC3 cells it was 57.3%. The percent inhibition of cell viability at 20 µM in the test on A2780 cells stood at 77%; in the test on PC3 cells it was 57.6%.

Consider `Cc1ccc(C(=O)Nc2ccc(-c3cccc(NC4CC4)c3)cn2)cn1` [Compound 33, N-{5-[3-(cyclopropylamino)phenyl]pyridin-2-yl}-6-methylpyridine-3-carboxamide], for which, in the test on A2780 cells, the percent inhibition of cell viability at 4 µM was 69.5% and the percent inhibition of cell viability at 20 µM amounted to 74.8%. Further, in the test on PC3 cells, the percent inhibition of cell viability at 4 µM stood at 56.1% and the percent inhibition of cell viability at 20 µM was 54.9%.

For `CN1CCN(c2cccc(-c3ccc(NC(=O)c4cncnc4)nc3)c2)CC1` [Compound 34, N-{5-[3-(4-methylpiperazin-1-yl)phenyl]pyridin-2-yl}pyrimidine-5-carboxamide], in the test on A2780 cells, the percent inhibition of cell viability at 4 µM was 51.6% and the percent inhibition of cell viability at 20 µM is 49.4%. For the same compound, in the test on PC3 cells, the percent inhibition of cell viability at 4 µM came to 19.8% and the percent inhibition of cell viability at 20 µM came out at 30.3%.

On to `Cc1ncc(C(=O)Nc2ccc(-c3cccc(N4CCN(C)CC4)c3)cn2)cn1` [Compound 35, N-{5-[3-(4-methylpiperazin-1-yl)phenyl]pyridin-2-yl}-2-methylpyrimidine-5-carboxamide], for which, in the test with A2780 cells, the percent inhibition of cell viability at 4 µM is 54.6% and the percent inhibition of cell viability at 20 µM was determined as 75.9%. In the test with PC3 cells, the percent inhibition of cell viability at 4 µM came to 39.6% and the percent inhibition of cell viability at 20 µM came to 58.8%.

For the compound `CN1CCN(c2cccc(-c3ccc(NC(=O)c4cccnc4)nc3)c2)CC1` [Compound 36, N-{5-[3-(4-methylpiperazin-1-yl)phenyl]pyridin-2-yl}pyridine-3-carboxamide], in the test with A2780 cells, the percent inhibition of cell viability at 4 µM turned out to be 51.3% and the percent inhibition of cell viability at 20 µM was found to be 55.5%. Further, in the test with PC3 cells, the percent inhibition of cell viability at 4 µM is 24.3% and the percent inhibition of cell viability at 20 µM stood at 42.5%.

As for `Cc1ccc(C(=O)Nc2ccc(-c3cccc(N4CCN(C)CC4)c3)cn2)cn1` [Compound 37, N-{5-[3-(4-methylpiperazin-1-yl)phenyl]pyridin-2-yl}-6-methylpyridine-3-carboxamide], the percent inhibition of cell viability at 4 µM with A2780 cells was found to be 59.2%; in the test with PC3 cells it was 35.4%. The values for the percent inhibition of cell viability at 20 µM with A2780 cells and in the test with PC3 cells were 70.8% and 61%, respectively.

Take `Cc1ncc(C(=O)Nc2ccc(-c3cccc(OCCN4CCN(C)CC4)c3)cn2)cn1` [Compound 38, N-{-5-[3-(2-(4-methylpiperazin-1-yl)ethoxy)phenyl]pyridin-2-yl}-2-methylpyrimidine-5-carboxamide]: the results for the percent inhibition of cell viability at 4 µM in the test with A2780 cells and in the test on PC3 cells were 51.7% and 39.9%, respectively. For the same compound, the results for the percent inhibition of cell viability at 20 µM in the test on A2780 cells and in the test with PC3 cells were 68.7% and 61.2%, respectively.

For the compound `O=C(Nc1ccc(-c2cccc(C3CC3)c2)cn1)c1cnccc1F` [Compound 39, N-[5-(3-cyclopropylphenyl)pyridin-2-yl]-4-fluoropyridine-3-carbox-amide], in the test with A2780 cells, the percent inhibition of cell viability at 4 µM is 55.6% and the percent inhibition of cell viability at 20 µM turned out to be 58.7%. Also, in the test with PC3 cells, the percent inhibition of cell viability at 4 µM is 19.2% and the percent inhibition of cell viability at 20 µM turned out to be 28.7%.

`O=C(Nc1ccc(-c2cccc(-c3ccccc3)c2)cn1)c1cncnc1` [Compound 40, N-[5-(biphenyl-3-yl)pyridin-2-yl]pyrimidine-5-carboxamide]: in the test with A2780 cells, the percent inhibition of cell viability at 4 µM was 61% and the percent inhibition of cell viability at 20 µM worked out at 72%. Besides, in the test on PC3 cells, the percent inhibition of cell viability at 4 µM was found to be 48.3% and the percent inhibition of cell viability at 20 µM is 52.5%.

`O=C(Nc1ccc(-c2cccc(C3COC3)c2)cn1)c1cncnc1` [Compound 41, N-{5-[3-(oxetan-3-yl)phenyl]pyridin-2-yl}pyrimidine-5-carboxamide]: in the test on A2780 cells, the percent inhibition of cell viability at 4 µM worked out at 74.7% and the percent inhibition of cell viability at 20 µM was determined as 88.9%. Besides, in the test with PC3 cells, the percent inhibition of cell viability at 4 µM was determined as 74.5% and the percent inhibition of cell viability at 20 µM is 80.9%.

Values taken from US12383533B2 (Frost Biologic, Inc., priority 2014, dated 2025).
